Data from patent US9884063B2, “Amido-substituted azole compounds” (Bayer Pharma Aktiengesellschaft, priority 2014, dated 2018).

These compounds were tested against T1, TNKS2 (Homo sapiens, UniProt Q9H2K2) (assay: Modified TNKS2 Assay 3 (BPS kit #80578, biotin-NAD+, 96 well)). Settings: human TNKS2, BPS kit #80578, 96 well.
T1 sequence (Q9H2K2 1-1166): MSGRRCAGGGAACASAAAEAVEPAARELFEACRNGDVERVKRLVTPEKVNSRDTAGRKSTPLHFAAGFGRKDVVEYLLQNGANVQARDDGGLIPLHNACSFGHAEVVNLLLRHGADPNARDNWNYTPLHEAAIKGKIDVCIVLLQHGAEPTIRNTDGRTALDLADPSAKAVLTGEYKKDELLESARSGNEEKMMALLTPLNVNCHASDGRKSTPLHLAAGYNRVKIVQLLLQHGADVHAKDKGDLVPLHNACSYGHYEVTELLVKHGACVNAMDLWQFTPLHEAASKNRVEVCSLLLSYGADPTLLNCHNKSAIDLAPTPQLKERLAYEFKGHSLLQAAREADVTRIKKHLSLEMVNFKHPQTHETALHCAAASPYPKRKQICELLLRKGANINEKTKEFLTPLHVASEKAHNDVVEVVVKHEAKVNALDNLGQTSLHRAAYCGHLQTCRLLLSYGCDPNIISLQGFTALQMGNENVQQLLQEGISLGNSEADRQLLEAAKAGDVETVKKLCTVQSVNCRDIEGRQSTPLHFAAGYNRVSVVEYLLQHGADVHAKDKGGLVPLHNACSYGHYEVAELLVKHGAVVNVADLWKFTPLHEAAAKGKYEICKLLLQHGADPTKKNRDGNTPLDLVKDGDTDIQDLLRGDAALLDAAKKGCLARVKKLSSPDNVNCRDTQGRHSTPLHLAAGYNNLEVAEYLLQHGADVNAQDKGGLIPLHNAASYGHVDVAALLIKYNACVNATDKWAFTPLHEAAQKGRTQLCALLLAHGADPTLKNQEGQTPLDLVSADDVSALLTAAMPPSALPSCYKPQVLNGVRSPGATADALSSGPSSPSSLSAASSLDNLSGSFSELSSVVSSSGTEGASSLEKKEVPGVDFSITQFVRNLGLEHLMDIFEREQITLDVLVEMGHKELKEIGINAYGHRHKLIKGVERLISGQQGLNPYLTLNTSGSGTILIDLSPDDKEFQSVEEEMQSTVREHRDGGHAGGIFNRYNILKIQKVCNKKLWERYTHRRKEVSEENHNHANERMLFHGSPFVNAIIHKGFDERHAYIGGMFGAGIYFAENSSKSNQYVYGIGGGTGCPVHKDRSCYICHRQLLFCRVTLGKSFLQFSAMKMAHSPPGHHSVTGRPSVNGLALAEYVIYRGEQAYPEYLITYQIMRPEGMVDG
Type: biochemical
Procedure, shortened: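 Commercial kit assay measuring TNKS2-catalysed incorporation of biotin-labelled NAD+ into a protein substrate, detected by streptavidin-HRP chemiluminescence. Run per manufacturer's protocol; IC50 is the concentration halving the normalised signal.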
`CC(CN1CCOCC1)NC(=O)c1[nH]cnc1C(=O)Nc1ccc(NC(=O)c2ccc(F)cc2Cl)cc1` (single isomer, unassigned; enantiomer 2) [Example 270, N^4-{4-[(2-chloro-4-fluorobenzoyl)amino]phenyl}-N^5-[1-(morpholin-4-yl)propan-2-yl]-1H-imidazole-4,5-dicarboxamide (enantiomer 2)] showed an IC50 of 10 nM.
With `CN(C)CCNC(=O)c1nc[nH]c1C(=O)Nc1ccc(NC(=O)c2ccc(F)cc2Cl)cc1` [Example 22, N^4-{4-[(2-chloro-4-fluorobenzoyl)amino]phenyl}-N^5-[2-(dimethylamino)ethyl]-1H-imidazole-4,5-dicarboxamide] the IC50 was 10 nM.
Compound `O=C(Nc1ccc(NC(=O)c2[nH]cnc2C(=O)NCCN2CCCCC2)cc1)c1ccc(F)cc1Cl` [Example 32, N^4-{4-[(2-chloro-4-fluorobenzoyl)amino]phenyl}-N^5-[2-(piperidin-1-yl)ethyl]-1H-imidazole-4,5-dicarboxamide] has an IC50 of 1 nM.
`O=C(Nc1ccc(NC(=O)c2[nH]cnc2C(=O)NC2CC2)cc1)c1cc(F)c(F)cc1Cl` [Example 51, N^5-{4-[(2-chloro-4,5-difluorobenzoyl)amino]phenyl}-N^4-cyclopropyl-1H-imidazole-4,5-dicarboxamide] gave an IC50 of 10 nM.
`O=C(Nc1ccc(NC(=O)c2[nH]cnc2C(=O)N2CC3(COC3)C2)cc1)c1cc(F)c(F)cc1Cl` [Example 52, N-{4-[(2-chloro-4,5-difluorobenzoyl)amino]phenyl}-4-(2-oxa-6-azaspiro[3.3]hept-6-ylcarbonyl)-1H-imidazole-5-carboxamide] gave an IC50 of 250 nM.
`CNC(=O)c1nc[nH]c1C(=O)Nc1ccc(NC(=O)c2ccc(S(C)(=O)=O)cc2Cl)cc1` [Example 55, N^5-(4-{[2-chloro-4-(methylsulfonyl)benzoyl]amino}phenyl)-N^4-methyl-1H-imidazole-4,5-dicarboxamide] showed an IC50 of 10 nM.
`CNC(=O)c1nc[nH]c1C(=O)Nc1ccc(NC(=O)c2ccc(F)cc2Br)cc1` [Example 56, N^5-{4-[(2-bromo-4-fluorobenzoyl)amino]phenyl}-N^4-methyl-1H-imidazole-4,5-dicarboxamide] was tested, and the IC50 was 60 nM.
Work on `CNC(=O)c1nc[nH]c1C(=O)Nc1ccc(NC(=O)c2ccc(F)cc2I)cc1` [Example 61, N^5-{4-[(4-fluoro-2-iodobenzoyl)amino]phenyl}-N^4-methyl-1H-imidazole-4,5-dicarboxamide] yielded an IC50 of 3 nM.
`Cc1nc(C(=O)Nc2ccc(NC(=O)c3ccc(F)cc3Cl)cc2)c(C(=O)NCCN2CCCCC2)[nH]1` [Example 67, N^4-{4-[(2-chloro-4-fluorobenzoyl)amino]phenyl}-2-methyl-N^5-[2-(piperidin-1-yl)ethyl]-1H-imidazole-4,5-dicarboxamide] gave an IC50 of 5 nM.
For `C[C@@H]1CCCCN1CCNC(=O)c1[nH]cnc1C(=O)Nc1ccc(NC(=O)c2ccc(F)cc2Cl)cc1` [Example 267, N^4-{4-[(2-chloro-4-fluorobenzoyl)amino]phenyl}-N^5-{2-[(2R)-2-methylpiperidin-1-yl]ethyl}-1H-imidazole-4,5-dicarboxamide], the IC50 was under 0.5 nM.
In the case of `C[C@@H]1CCCN(CCNC(=O)c2[nH]cnc2C(=O)Nc2ccc(NC(=O)c3ccc(F)cc3Cl)cc2)C1` [Example 278, N^4-{4-[(2-chloro-4-fluorobenzoyl)amino]phenyl}-N^5-{2-[(3R)-3-methylpiperidin-1-yl]ethyl}-1H-imidazole-4,5-dicarboxamide], the IC50 is reported as 1 nM.
